Experimental data reported in ChEMBL document CHEMBL3232974, “In vivo optimization of 2,3-diaminopyrazine Rho Kinase inhibitors for the treatment of glaucoma” (Bioorg Med Chem Lett, 2014).

What was measured:
[1] = Aqueous solubility of the compound; format: physicochemical; settings: buffer
Cavia porcellus [2] = organism: Cavia porcellus; assay: Antiglaucoma activity in guinea pig assessed as hyperemia at 300 ug after 2 hrs relative to control; format: functional
Cynomolgus monkey [3] = assay: Antiglaucoma activity in cynomolgus monkey assessed as reduction in intraocular pressure at MTD administered as topical ocular dose after 6 hrs relative to control; format: functional, Macaca fascicularis, Eye; set-up: scale not given: the % may be the effect or the level left
Cynomolgus monkey [4] = assay: Toxicity in cynomolgus monkey compound administered as topical ocular dose after 6 hrs; format: organism-based, Macaca fascicularis, Eye; settings: in vivo, topical_or_ocular
[5] = Drug level in Dutch-Belted rabbit aqueous humor at 150 ug administered as topical ocular instillation after 30 mins by RP-HPLC analysis; format: ADME, Oryctolagus cuniculus, Aqueous humor of eyeball; settings: topical or ocular, read-out: Drug uptake
[6] = target: Rho-associated protein kinase 2 (Homo sapiens, UniProt O75116); assay: Inhibition of truncated ROCK-2 (unknown origin) after 60 mins by IMAP assay
Sequence of Rho-associated protein kinase 2 (O75116 whole entry, the tested form may be a part): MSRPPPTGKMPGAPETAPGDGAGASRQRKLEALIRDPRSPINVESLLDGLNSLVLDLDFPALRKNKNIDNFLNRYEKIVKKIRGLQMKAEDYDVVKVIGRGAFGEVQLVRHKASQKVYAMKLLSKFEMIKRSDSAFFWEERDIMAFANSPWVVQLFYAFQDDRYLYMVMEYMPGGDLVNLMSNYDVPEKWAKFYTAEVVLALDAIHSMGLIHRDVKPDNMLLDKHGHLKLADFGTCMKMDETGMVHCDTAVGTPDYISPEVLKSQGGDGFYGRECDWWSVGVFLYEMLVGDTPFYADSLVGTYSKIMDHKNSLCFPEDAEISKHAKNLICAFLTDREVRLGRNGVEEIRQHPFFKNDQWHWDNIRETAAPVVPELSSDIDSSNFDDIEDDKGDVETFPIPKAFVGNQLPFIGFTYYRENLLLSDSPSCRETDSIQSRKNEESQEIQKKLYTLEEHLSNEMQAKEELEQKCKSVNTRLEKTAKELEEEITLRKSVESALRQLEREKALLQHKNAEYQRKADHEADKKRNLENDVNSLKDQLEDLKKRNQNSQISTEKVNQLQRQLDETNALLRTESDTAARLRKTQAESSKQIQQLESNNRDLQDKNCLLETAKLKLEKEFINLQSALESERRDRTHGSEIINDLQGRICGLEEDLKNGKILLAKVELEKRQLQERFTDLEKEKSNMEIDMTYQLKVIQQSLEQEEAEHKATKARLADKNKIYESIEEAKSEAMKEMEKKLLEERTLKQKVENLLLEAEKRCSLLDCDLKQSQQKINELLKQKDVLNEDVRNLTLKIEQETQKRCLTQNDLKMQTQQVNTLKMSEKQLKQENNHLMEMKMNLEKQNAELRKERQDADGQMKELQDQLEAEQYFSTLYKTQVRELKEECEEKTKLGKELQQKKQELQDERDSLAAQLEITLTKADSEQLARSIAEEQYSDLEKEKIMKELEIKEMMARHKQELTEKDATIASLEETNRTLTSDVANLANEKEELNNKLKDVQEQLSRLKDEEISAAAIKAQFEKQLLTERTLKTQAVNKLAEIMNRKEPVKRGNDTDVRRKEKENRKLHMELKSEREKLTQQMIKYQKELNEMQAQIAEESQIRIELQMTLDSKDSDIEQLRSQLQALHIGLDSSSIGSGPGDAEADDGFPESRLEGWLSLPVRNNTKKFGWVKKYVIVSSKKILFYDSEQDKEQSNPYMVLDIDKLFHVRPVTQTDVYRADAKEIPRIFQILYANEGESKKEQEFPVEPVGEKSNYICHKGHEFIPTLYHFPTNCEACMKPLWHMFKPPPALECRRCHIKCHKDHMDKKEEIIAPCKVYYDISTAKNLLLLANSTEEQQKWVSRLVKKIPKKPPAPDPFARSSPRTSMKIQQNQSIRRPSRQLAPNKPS

[7] = target: Rho-associated protein kinase 1 (Homo sapiens, UniProt Q13464); assay: Inhibition of truncated ROCK-1 (unknown origin)
Sequence of Rho-associated protein kinase 1 (Q13464 whole entry, the tested form may be a part): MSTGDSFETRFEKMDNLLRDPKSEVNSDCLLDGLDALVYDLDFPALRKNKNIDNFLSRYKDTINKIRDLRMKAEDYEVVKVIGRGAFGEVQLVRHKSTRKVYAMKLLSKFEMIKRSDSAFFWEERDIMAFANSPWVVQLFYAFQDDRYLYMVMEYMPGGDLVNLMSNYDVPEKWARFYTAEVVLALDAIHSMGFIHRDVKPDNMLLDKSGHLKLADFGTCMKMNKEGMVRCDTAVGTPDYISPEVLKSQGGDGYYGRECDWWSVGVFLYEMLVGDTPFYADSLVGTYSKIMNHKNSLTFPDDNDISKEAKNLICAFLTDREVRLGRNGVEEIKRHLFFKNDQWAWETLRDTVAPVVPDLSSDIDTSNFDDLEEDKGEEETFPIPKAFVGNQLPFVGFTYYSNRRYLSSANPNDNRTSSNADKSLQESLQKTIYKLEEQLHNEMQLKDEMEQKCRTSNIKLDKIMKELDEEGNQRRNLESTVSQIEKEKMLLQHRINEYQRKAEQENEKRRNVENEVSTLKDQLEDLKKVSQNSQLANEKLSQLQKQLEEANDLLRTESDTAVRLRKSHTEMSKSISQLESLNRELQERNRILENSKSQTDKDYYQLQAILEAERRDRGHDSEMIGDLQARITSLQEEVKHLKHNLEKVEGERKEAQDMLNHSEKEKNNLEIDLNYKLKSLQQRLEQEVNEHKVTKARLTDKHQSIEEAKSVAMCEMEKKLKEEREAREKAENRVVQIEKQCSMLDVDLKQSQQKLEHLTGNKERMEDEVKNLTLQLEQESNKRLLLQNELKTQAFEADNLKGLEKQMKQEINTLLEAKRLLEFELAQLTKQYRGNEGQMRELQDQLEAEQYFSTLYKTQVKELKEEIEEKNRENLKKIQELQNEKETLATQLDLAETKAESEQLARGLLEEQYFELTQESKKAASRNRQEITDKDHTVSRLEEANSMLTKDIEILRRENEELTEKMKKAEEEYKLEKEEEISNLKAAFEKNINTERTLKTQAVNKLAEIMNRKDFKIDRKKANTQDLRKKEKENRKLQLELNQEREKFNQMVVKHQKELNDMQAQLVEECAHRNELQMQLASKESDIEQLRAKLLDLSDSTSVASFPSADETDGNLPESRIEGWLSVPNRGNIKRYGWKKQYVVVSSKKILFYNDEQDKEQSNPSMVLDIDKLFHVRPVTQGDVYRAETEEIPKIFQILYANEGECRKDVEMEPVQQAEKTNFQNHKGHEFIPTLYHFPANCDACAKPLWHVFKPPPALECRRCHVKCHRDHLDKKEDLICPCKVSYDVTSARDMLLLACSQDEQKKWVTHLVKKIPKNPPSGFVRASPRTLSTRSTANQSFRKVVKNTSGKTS

[8] = Drug level in Dutch-Belted rabbit aqueous humor at 100 ug administered as topical ocular instillation after 30 mins by RP-HPLC analysis; format: ADME, Oryctolagus cuniculus, Aqueous humor of eyeball; settings: topical or ocular, read-out: Drug uptake
Cavia porcellus [9] = organism: Cavia porcellus; assay: Antiglaucoma activity in guinea pig assessed as hyperemia at 100 ug after 2 hrs relative to control; format: functional
Cavia porcellus [10] = organism: Cavia porcellus; assay: Antiglaucoma activity in guinea pig assessed as hyperemia at 30 ug after 2 hrs relative to control; format: functional
Cavia porcellus [11] = organism: Cavia porcellus; assay: Antiglaucoma activity in guinea pig assessed as lowest dose required for producing 100% hyperemia after 2 hrs; format: functional
Homo sapiens [12] = assay: Antiglaucoma activity in human assessed as reduction in intraocular pressure at 0.25% solution administered as topical ocular dose after 21 days relative to control; format: functional, Eye; set-up: scale not given: the % may be the effect or the level left
[13] = Drug level in Dutch-Belted rabbit aqueous humor at 300 ug administered as topical ocular instillation after 30 mins by RP-HPLC analysis; format: ADME, Oryctolagus cuniculus, Aqueous humor of eyeball; settings: topical or ocular, read-out: Drug uptake
Homo sapiens [14] = assay: Antiglaucoma activity in human assessed as reduction in intraocular pressure at 0.1% solution administered as topical ocular instillation relative to control; format: functional, Eye; set-up: scale not given: the % may be the effect or the level left

SMILES | solubility [1] | Activity (Cavia porcellus [2]) [%] | Activity (Cynomolgus monkey [3]) [%] | MTD (Cynomolgus monkey [4]) [%] | concentration at 0.5 h [5] [nM] | IC50 [6] [nM] | IC50 [7] [nM] | concentration at 0.5 h [8] [nM] | Activity (Cavia porcellus [9]) [%] | Activity (Cavia porcellus [10]) [%] | Activity (Cavia porcellus [11]) [µg] | Activity (Homo sapiens [12]) [%] | concentration at 0.5 h [13] [µM] | Activity (Homo sapiens [14]) [%]
CN(C)CC(O)CN1CCN(c2nc(-c3ccncc3)cnc2N2CCCC2)CC1 (configuration not stated) | soluble | 58 | 14 | 1 | 950 | 76 | 288 |  |  |  |  |  |  | 
CC(=O)NCC(O)CN1CCN(c2nc(-c3ccncc3)cnc2N2CCCC2)CC1 (configuration not stated) | soluble |  | 9 | 0.33 |  | 68 | 350 | 4800 | 42 |  |  |  |  | 
CC(=O)NCCCN1CCN(c2nc(-c3ccncc3)cnc2N2CCCC2)CC1 | soluble |  | 24 | 0.5 | 8300 | 75 | 346 |  |  | 66 |  |  |  | 
c1nc(N2CCCC2)c(N2CCCNCC2)nc1-c1cc2cn[nH]c2cn1 |  |  | 26 | 0.33 | 680 | 65 | 203 |  |  |  | 30 |  |  | 
c1cc2[nH]ncc2cc1-c1cncc(N2CCCNCC2)n1 |  |  | 30 | 0.33 |  | 24 | 105 | 1000 |  |  | 30 |  |  | 
Cc1n[nH]c2ccc(-c3cncc(N4CCCNCC4)n3)cc12 |  |  | 31 | 0.33 |  | 36 | 140 | 200 |  |  |  |  |  | 
CNC(CC1CCCCC1)C(=O)Nc1ccc2cnccc2c1 (configuration not stated) |  |  |  |  |  |  |  |  |  |  |  | 20 |  | 
OCCN1CCN(c2nc(-c3ccncc3)cnc2N2CCCC2)CC1 | soluble |  | 26 | 1 |  | 39 | 570 |  | 33 |  |  |  | 3.8 | 
C[C@@H](N)c1ccc(C(=O)Nc2ccnc3[nH]ccc23)cc1 [Y-39983] | soluble |  | <15 | 0.1 |  |  |  |  |  |  | 3 |  | 4.4 | 22
